Results reported in US20190014793A1, “METHOD OF PROVIDING NUTRITION TO INFANTS” (ABBOTT LABORATORIES, priority 2011, published 2019).

Legend:
[1] = Merck Index, 11th Ed.; cited from earlier work
[2] = Amino acid solubility considerations (estimated concentration v. solubility limit); format: physicochemical; details: % of solubility limit at 25° C.

SMILES | Solubility limit of free amino acid, 25° C. [1] | Sterile liquid protein concentration, % of limit [2]
CC[C@H](C)[C@H](N)C(=O)O [Ile, Isoleucine] | 41.2 mg/mL | 22%
CC(C)C[C@H](N)C(=O)O [Leu, Leucine] | 24.26 mg/mL | 67%
CC(C)[C@H](N)C(=O)O [Val, Valine] | 88.5 mg/mL | 13%
N[C@@H](Cc1ccc(O)cc1)C(=O)O [Tyr, L-tyrosine] |  | 400%
N[C@@H](Cc1ccccc1)C(=O)O [Phe, L-phenylalanine] | 29.6 mg/mL | 27%
